# Experimental data from ChEMBL document CHEMBL1140175, “Synthesis and evaluation of novel boron-containing complexes of potential use for the selective treatment of malignant melanoma” (J Med Chem, 2008).
# Active and inactive are the calls of the source. The calls are words filed in the database; no cut-off is given here.
# Tests used:
# [1] = biological target: T1, Tyrosinase (Agaricus bisporus) (UniProt O42713); assay: Binding affinity to mushroom tyrosinase assessed as […]
# T1 sequence (whole entry): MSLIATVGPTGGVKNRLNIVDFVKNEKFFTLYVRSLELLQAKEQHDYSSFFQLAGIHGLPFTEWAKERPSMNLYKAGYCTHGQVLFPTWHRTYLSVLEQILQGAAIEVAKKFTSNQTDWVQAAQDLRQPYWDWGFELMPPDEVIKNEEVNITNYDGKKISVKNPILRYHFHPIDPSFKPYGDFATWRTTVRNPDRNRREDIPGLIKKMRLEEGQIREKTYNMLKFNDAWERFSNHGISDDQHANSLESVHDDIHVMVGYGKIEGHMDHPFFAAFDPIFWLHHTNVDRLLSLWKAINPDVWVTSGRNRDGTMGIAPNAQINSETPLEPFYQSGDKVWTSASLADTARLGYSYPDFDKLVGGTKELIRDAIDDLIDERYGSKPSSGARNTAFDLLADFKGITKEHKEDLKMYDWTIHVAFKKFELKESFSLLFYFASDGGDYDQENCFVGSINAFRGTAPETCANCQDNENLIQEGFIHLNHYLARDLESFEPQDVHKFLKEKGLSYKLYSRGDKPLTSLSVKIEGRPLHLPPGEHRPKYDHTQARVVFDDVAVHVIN
# [2] = Cellular uptake in human SK-MEL-23 cells assessed as boron content at 50 uM after 6 hrs relative to control; format: ADME, cell-based
# [3] = Cellular uptake in human SK-MEL-23 cells assessed as boron content at 50 uM after 2 hrs relative to control; format: ADME, cell-based
# [4] = Cellular uptake in human SK-MEL-23 cells assessed as boron content at 50 uM relative to control; format: ADME, cell-based
# [5] = system: MCF7; assay: Cytotoxicity against human MCF7 cells assessed as LDH release up to 100 uM after 6 hrs by colorimetric assay; format: functional
# [6] = Cytotoxicity against human SK-MEL-23 cells assessed as LDH release up to 100 uM after 6 hrs by colorimetric assay; format: functional
Structure (SMILES),Activity [1],Activity [2] [%],Activity [3] [%],Activity [4],Activity [5] [%],Activity [6] [%]
O=C1O[B-]2([NH2+][C@H]1Cc1ccc(O)c(O)c1)C1CCCC2CCC1 (some centres undefined),Active,,,,,
O=C1O[B-]2([NH2+][C@H]1Cc1c[nH]c3ccc(O)cc13)C1CCCC2CCC1 (some centres undefined),inactive,,,,,
O=C1O[B-]2([NH2+][C@H]1Cc1ccc(O)cc1)C1CCCC2CCC1 (some centres undefined),Active,> 50,50,Not Active,<5,<5
O=C1O[B-]2([NH2+][C@H]1Cc1ccccc1)C1CCCC2CCC1 (some centres undefined),inactive,,,,,
